Tests used:
p38 MAPKα = p38 MAPKα (Homo sapiens (Human), UniProt Q16539); experiment: p38 MAPKα enzyme inhibition (FRET, Z-LYTE), Method 2; format: biochemical
c-Src = c-Src (Homo sapiens (Human), UniProt P12931); experiment: c-Src enzyme inhibition (FRET, Z-LYTE); format: biochemical
Protocol: (§1) The enzyme inhibitory activities of compounds disclosed herein are determined by FRET using synthetic peptides labelled with both donor and acceptor fluorophores (Z-LYTE, Invitrogen Ltd., Paisley, UK).
(§2) The relevant enzyme (3000 ng/mL or 2000 ng/mL respectively, 2.5 μL) is incubated with the test compound (either 4 μg/mL, 0.4 μg/mL, 0.04 μg/mL, or 0.004 μg/mL, 2.5 μL each) for 2 hr at RT. The FRET peptides (8 μM, 2.5 μL), and appropriate ATP solutions (2.5 μL, 800 μM for c-Src, and 60 μM ATP for Syk) are then added to the enzymes/compound mixtures and incubated for 1 hr. Development reagent (protease, 5 μL) is added for 1 hr prior to detection in a fluorescence microplate reader (Varioskan® Flash, ThermoFisher Scientific).
(§3) In all cases, the site-specific protease cleaves non-phosphorylated peptide only and eliminates the FRET signal. Phosphorylation levels of each reaction are calculated using the ratio of coumarin emission (donor) over fluorescein emission (acceptor), for which high ratios indicate high phosphorylation and low ratios indicate low phosphorylation levels.

Syk = Syk (Homo sapiens (Human), UniProt P43405); experiment: Syk enzyme inhibition (FRET, Z-LYTE); format: biochemical
Protocol: as §1
as §2, with “The inhibitory activities of compounds of the invention against c-Src and Syk enzymes (Invitrogen), are evaluated in a similar fashion to that described hereinabove. The relevant” for “The relevant”
as §3

GSK3α = GSK3α (Homo sapiens (Human), UniProt P49840); experiment: GSK 3α enzyme inhibition (FRET, Z-LYTE), Method 2; format: biochemical
GSK3α, sequence (P49840 whole entry): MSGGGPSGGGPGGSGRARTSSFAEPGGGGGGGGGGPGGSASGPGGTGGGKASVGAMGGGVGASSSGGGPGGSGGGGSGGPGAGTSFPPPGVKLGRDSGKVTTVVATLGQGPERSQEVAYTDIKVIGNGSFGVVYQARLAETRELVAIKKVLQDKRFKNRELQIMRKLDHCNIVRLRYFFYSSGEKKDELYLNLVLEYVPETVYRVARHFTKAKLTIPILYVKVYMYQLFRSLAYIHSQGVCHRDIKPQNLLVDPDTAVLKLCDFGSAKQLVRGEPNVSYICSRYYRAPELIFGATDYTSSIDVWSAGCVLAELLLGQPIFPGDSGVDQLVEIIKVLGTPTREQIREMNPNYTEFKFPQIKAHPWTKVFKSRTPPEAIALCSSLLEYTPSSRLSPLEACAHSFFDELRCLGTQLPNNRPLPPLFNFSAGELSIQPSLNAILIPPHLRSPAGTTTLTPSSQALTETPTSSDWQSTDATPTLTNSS
Protocol: as §1
The inhibitory activities of compounds of the invention against the GSK 3α enzyme isoform (Invitrogen), are evaluated by determining the level of activation/phosphorylation of the target peptide. The GSK3-α protein (500 ng/mL, 2.5 μL) is mixed with the test compound (2.5 μL at either 4 μg/mL, 0.4 μg/mL, 0.04 μg/mL, or 0.004 μg/mL) for 2 hr at RT. The FRET peptide (8 μM, 2.5 μL), which is a phosphorylation target for GSK3α, and ATP (40 μM, 2.5 μL) are then added to the enzyme/compound mixture and the resulting mixture incubated for 1 hr. Development reagent (protease, 5 μL) is added for 1 hr prior to detection in a fluorescence microplate reader (Varioskan® Flash, ThermoFisher Scientific).
as §3
This method follows the same steps as Method 1 above, but utilises a shorter period of mixing of the test compound (105 minutes instead of 2 hours) with the GSK3-α protein.

PBMCs [1] = experiment: LPS-induced TNFα/IL-8 release in PBMC cells, assay (b); format: cell-based; settings: Homo sapiens, LPS-stimulated PBMCs, read-out: IC50 Values for Inhibition of Cytokine Release, PBMCs IL-8
Protocol: Peripheral blood mononuclear cells (PBMCs) from healthy subjects are separated from whole blood using a density gradient (Lymphoprep, Axis-Shield Healthcare). The PBMCs are seeded in 96 well plates and treated with compounds at the desired concentration for 2 hours before addition of 1 ng/mL LPS (Escherichia Coli 0111:B4 from Sigma Aldrich) for 24 hours under normal tissue culture conditions (37° C., 5% CO2). The supernatant is harvested for determination of IL-8 and TNFα concentrations by sandwich ELISA (Duo-set, R&D systems) and read on the fluorescence microplate reader (Varioskan® Flash, ThermoFisher Scientific).

PBMCs [2] = experiment: IL-2 and IFN gamma release in CD3/CD28 stimulated PBMC cells, assay (c); format: cell-based; settings: Homo sapiens
Protocol: PBMCs from healthy subjects are separated from whole blood using a density gradient (Lymphoprep, Axis-Shield Healthcare). Cells are added to a 96 well plate pre-coated with a mixture of CD3/CD28 monoclonal antibodies (0.3 μg/mL eBioscience and 3 μg/mL BD Pharmingen respectively). Compound at the desired concentration is then added to the wells and the plate left for 3 days under normal tissue culture conditions. Supernatants are harvested and IL-2 and IFN gamma release determined by Sandwich ELISA (Duo-set, R&D System). The IC50 is determined from the dose response curve.

d-U937 cells = experiment: Accumulation of β catenin in d-U937 cells, assay (m); format: cell-based, human
Protocol: U937 cells, a human monocytic cell line, are differentiated into macrophage-type cells by incubation with PMA; (100 ng/mL) for between 48 to 72 hr. The cells are then incubated with either final concentrations of test compound or vehicle for 18 hr. The induction of β-catenin by the test compounds is stopped by replacing the media with 4% formaldehyde solution. Endogenous peroxide activity is neutralised by incubating with quenching buffer (100 μL, 0.1% sodium azide, 1% H2O2 in PBS with 0.05% Tween-20) for 20 min. The cells are washed with washing buffer (200 μL; PBS containing 0.05% Tween-20) and incubated with blocking solution (200 μL; 5% milk in PBS) for 1 hr, re-washed with washing buffer (200 μL) and then incubated overnight with anti-β-catenin antibody solution (50 μL) in 1% BSA/PBS (BD, Oxford, UK).
After washing with washing buffer (3×200 μL; PBS containing 0.05% Tween-20), cells are incubated with an HRP-conjugated secondary antibody solution (100 μL) in 1% BSA/PBS (Dako, Cambridge, UK) and the resultant signal is determined colourimetrically (OD: 450 nm with a reference wavelength of 655 nm) using TMB substrate (50 μL; R&D Systems, Abingdon, UK). This reaction is stopped by addition of 1N H2SO4 solution (50 μL). Cells are then washed with washing buffer and 2% crystal violet solution (50 μL) is applied for 30 min. After washing with washing buffer (3×200 μL), 1% SDS (100 μL) is added to each well and the plates are shaken lightly for 1 hr prior to measuring the absorbance at 595 nm (Varioskan® Flash, Thermo-Fisher Scientific).
The measured OD450-655 readings are corrected for cell number by dividing the OD450-655 by the OD595 readings. The percentage induction for each well is calculated relative to vehicle, and the ratio of induction normalised in comparison with the induction produced by a standard control comprising of N-(4-(4-(3-(3-tert-butyl-1-p-tolyl-1H-pyrazol-5-yl)ureido)naphthalen-1-yloxy)pyridin-2-yl)-2-methoxyacetamide (1 μg/mL) which is defined as 100%.

[3] = IFNγ, read-out: IC50 Values for Inhibition of Cytokine Release, PBMCs IFNγ
[4] = 1 μg/mL test compound, normalised to reference N-(4-(4-(3-(3-tert-butyl-1-p-tolyl-1H-pyrazol-5-yl)ureido)naphthalen-1-yloxy)pyridin-2-yl)-2-methoxyacetamide
[5] = 5 μg/mL test compound, normalised to the same reference compound
[6] = 10 μg/mL test compound, normalised to the same reference compound

p38 MAPKα, sequence (Q16539 whole entry): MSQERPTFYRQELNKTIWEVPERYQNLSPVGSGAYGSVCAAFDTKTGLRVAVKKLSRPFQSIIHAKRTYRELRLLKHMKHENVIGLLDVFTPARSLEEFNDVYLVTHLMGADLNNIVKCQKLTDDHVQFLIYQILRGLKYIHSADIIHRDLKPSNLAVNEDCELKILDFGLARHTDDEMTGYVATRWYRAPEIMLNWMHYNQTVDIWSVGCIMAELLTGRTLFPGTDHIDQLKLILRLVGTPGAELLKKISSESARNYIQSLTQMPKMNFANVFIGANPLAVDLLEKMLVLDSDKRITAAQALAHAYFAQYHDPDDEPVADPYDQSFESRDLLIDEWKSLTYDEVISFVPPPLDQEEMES
c-Src, sequence (P12931 whole entry, looked up): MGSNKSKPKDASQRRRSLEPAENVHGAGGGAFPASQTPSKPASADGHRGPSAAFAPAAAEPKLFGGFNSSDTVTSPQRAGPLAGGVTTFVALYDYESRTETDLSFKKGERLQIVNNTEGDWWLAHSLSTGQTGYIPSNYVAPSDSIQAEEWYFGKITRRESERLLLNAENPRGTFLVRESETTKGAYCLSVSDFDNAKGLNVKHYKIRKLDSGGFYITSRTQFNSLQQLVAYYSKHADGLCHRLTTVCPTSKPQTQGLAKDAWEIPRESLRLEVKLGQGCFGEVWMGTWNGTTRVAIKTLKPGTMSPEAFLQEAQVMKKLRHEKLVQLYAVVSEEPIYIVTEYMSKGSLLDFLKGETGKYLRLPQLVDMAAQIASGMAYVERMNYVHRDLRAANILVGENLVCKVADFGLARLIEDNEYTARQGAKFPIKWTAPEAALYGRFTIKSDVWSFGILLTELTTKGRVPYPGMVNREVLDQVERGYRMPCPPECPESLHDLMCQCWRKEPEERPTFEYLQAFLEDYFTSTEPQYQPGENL

Row | IC50 (p38 MAPKα) [nM] | IC50 (c-Src) [nM] | IC50 (Syk) [nM] | IC50 (GSK3α) [nM] | Compound | IC50 (PBMCs [1]) [nM] | IC50 (PBMCs [2]; [3]) [nM] | % β-catenin induction (d-U937 cells; [4]) [%] | % β-catenin induction (d-U937 cells; [5]) [%] | % β-catenin induction (d-U937 cells; [6]) [%] | IC50 (PBMCs [2]; IL-2, read-out: IC50 Values for Inhibition of Cytokine Release, PBMCs IL-2) [nM]
1 | 11 | 5 | > 1000 | 1850 | C#Cc1cc(Nc2nccc(Oc3ccc(NC(=O)Nc4cc(C(C)(C)C)nn4C)c4ccccc34)n2)cc(C(=O)NCCOCCOCCOC)c1 [Example 7, 3-((4-((4-(3-(3-(tert-Butyl)-1-methyl-1H-pyrazol-5-yl)ureido)naphthalen-1-yl)oxy)pyrimidin-2-yl)amino)-5-ethynyl-N-(2-(2-(2-methoxyethoxy)ethoxy)ethyl)benzamide] | 2.2 | 11.8 | 1.5 | 6 | 9.5 | 
2 |  |  |  | 1230 | COCCOCCOCCOCCOCCOCCOCCOc1cc(Nc2nccc(Oc3ccc(NC(=O)Nc4cc(C(C)(C)C)nn4C)c4ccccc34)n2)cc(OC)c1 [Example 6, 1-(4-((2-((3-(2,5,8,11,14,17,20-Heptaoxadocosan-22-yloxy)-5-methoxyphenyl)amino)-pyrimidin-4-yl)oxy)naphthalen-1-yl)-3-(3-(tert-butyl)-1-methyl-1H-pyrazol-5-yl)urea] | 10.7 |  |  |  |  | 
3 | 139 |  |  |  | COCCOCCOCCOc1cc(Nc2nccc(Oc3ccc(NC(=O)Nc4cc(C(C)(C)C)nn4-c4ccc(C)cc4)c4ccccc34)n2)cc(OC)c1 [Reference Compound B, 1-(3-(tert-Butyl)-1-(p-tolyl)-1H-pyrazol-5-yl)-3-(4-((2-((3-methoxy-5-(2-(2-(2-methoxy-ethoxy)ethoxy)ethoxy)phenyl)amino)pyrimidin-4-yl)oxy)naphthalen-1-yl)urea, reference compound] |  |  |  |  |  | 
4 | 160 | 10 | > 1000 | 7490 | COCCOCCOCCOc1cc(Nc2cc(Oc3ccc(NC(=O)Nc4cc(C(C)(C)C)nn4C)c4ccccc34)ccn2)cc(OC)c1 [Example 5, 1-(3-(tert-Butyl)-1-methyl-1H-pyrazol-5-yl)-3-(4-((2-((3-methoxy-5-(2-(2-(2-methoxy-ethoxy)ethoxy)ethoxy)phenyl)amino)pyridin-4-yl)oxy)naphthalen-1-yl)] | 2.8 | 13.3 | −5.5 | −7 | −2 | 33.8
5 |  |  |  | 8610 | C#Cc1cc(Nc2nccc(Oc3ccc(NC(=O)Nc4cc(C(C)(C)C)nn4C(C)C)c4ccccc34)n2)cc(C(=O)NCCOCCOCCOC)c1 [13(a), 3-((4-((4-(3-(3-(tert-Butyl)-1-isopropyl-1H-pyrazol-5-yl)ureido)naphthalen-1-yl)oxy)pyrimidin-2-yl)amino)-5-ethynyl-N-(2-(2-(2-methoxyethoxy)ethoxy)ethyl)-benzamide] | 5.4 |  |  |  |  | 
6 | 36 |  |  | 1940 | COc1cc(Nc2nccc(Oc3ccc(NC(=O)Nc4cc(C(C)(C)C)nn4C)c4ccccc34)n2)cc(S(=O)(=O)C2CC2)c1 [Example 3, 1-(3-(tert-Butyl)-1-methyl-1H-pyrazol-5-yl)-3-(4-((2-((3-(cyclopropylsulfonyl)-5-methoxy-phenyl)amino)pyrimidin-4-yl)oxy)naphthalen-1-yl)urea] | 7.2 | 22 | −1 | 25 | 27 | 
7 |  |  |  | 13100 | C#Cc1cc(Nc2nccc(Oc3ccc(NC(=O)Nc4cc(C(C)(C)C)nn4C(C)(C)C)c4ccccc34)n2)cc(C(=O)NCCOCCOCCOC)c1 [Example 12, 3-((4-((4-(3-(1,3-Di-tert-butyl-1H-pyrazol-5-yl)ureido)naphthalen-1-yl)oxy)pyrimidin-2-yl)amino)-5-ethynyl-N-(2-(2-(2-methoxyethoxy)ethoxy)ethyl)benzamide] | 546 |  |  |  |  | 
8 |  |  |  | 1010 | C#Cc1cc(Nc2nccc(Oc3ccc(NC(=O)Nc4cc(C(C)(C)C)nn4C)c4ccccc34)n2)cc(C(=O)NCCOCCOC)c1 [Example 4, 3-((4-((4-(3-(3-(tert-Butyl)-1-methyl-1H-pyrazol-5-yl)ureido)naphthalen-1-yl)oxy)pyrimidin-2-yl)amino)-5-ethynyl-N-(2-(2-methoxyethoxy)ethyl)] | 4.7 |  |  |  |  | 
9 | 54 |  |  |  | C#Cc1cc(Nc2nccc(Oc3ccc(NC(=O)Nc4cc(C(C)(C)C)nn4-c4ccc(C)cc4)c4ccccc34)n2)cc(C(=O)NCCN2CCOCC2)c1 [Reference Compound A, 3-((4-((4-(3-(3-(tert-Butyl)-1-(p-tolyl)-1H-pyrazol-5-yl)ureido)naphthalen-1-yl)oxy)-pyrimidin-2-yl)amino)-5-ethynyl-N-(2-morpholinoethyl)benzamide, reference compound] |  |  |  |  |  | 
10 |  |  |  | 13100 | C#Cc1cc(Nc2nccc(Oc3ccc(NC(=O)Nc4cc(C(C)(C)C)nn4CCC)c4ccccc34)n2)cc(C(=O)NCCOCCOCCOC)c1 [13(b), 3-((4-((4-(3-(3-(tert-Butyl)-1-propyl-1H-pyrazol-5-yl)ureido)naphthalen-1-yl)oxy)-pyrimidin-2-yl)amino)-5-ethynyl-N-(2-(2-(2-methoxyethoxy)ethoxy)ethyl)benzamide] | 9.3 |  |  |  |  | 

Reference: patent US9771353B2, “Kinase inhibitors based upon N-alkyl pyrazoles” (RESPIVERT LIMITED, priority 2013, dated 2017)
